Reference: patent publication US20250236608A1, “EGFR INHIBITORS” (Blueprint Medicines Corporation, priority 2022, published 2025)

How the values were obtained:
EGFR L858R = EGFR L858R (Homo sapiens (Human), UniProt P00533, L858R); test: Biochemical EGFR inhibition assay, EGFR L858R; settings: Caliper mobility shift; 1.0 mM ATP or ATP Km; read-out: Enz EGFR_L858R IC50
EGFR (d746-750) = EGFR (d746-750) (Homo sapiens (Human), UniProt P00533, DEL746-750); test: Biochemical EGFR inhibition assay, EGFR (d746-750); settings: Caliper mobility shift; 1.0 mM ATP or ATP Km; read-out: Enz EGFR_Exon19-del746-750 IC50
Chain of EGFR (d746-750) (P00533 other isoform, or with tags, fused parts or gaps del 1-694/del 746-750 limits assumed): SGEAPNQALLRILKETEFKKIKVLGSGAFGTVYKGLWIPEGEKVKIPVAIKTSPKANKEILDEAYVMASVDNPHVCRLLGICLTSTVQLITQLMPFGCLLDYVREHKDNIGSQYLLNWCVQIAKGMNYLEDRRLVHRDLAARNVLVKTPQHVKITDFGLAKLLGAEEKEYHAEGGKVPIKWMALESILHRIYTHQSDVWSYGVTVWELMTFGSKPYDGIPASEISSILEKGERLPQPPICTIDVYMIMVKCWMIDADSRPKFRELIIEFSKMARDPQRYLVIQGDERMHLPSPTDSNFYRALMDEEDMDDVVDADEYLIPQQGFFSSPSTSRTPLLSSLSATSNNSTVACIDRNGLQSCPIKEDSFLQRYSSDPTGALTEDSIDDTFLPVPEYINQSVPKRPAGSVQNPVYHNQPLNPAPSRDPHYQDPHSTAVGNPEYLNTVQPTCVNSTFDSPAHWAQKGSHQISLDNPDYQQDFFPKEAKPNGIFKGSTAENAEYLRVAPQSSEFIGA

[1] = biological target: pEGFR (Tyr1068) in PC-9 cells (Ex19Del) (Homo sapiens (Human), UniProt P00533, DEL746-750); test: PC-9 pEGFR AlphaLISA assay; assay type: cell-based; settings: 4 hours incubation, p-EGFR (Tyr1068) AlphaLISA, read-out: Ext pEGFR_PC-9 Ex19Del IC50
Chain of pEGFR (Tyr1068) in PC-9 cells (Ex19Del) (P00533 other isoform, or with tags, fused parts or gaps del 746-750): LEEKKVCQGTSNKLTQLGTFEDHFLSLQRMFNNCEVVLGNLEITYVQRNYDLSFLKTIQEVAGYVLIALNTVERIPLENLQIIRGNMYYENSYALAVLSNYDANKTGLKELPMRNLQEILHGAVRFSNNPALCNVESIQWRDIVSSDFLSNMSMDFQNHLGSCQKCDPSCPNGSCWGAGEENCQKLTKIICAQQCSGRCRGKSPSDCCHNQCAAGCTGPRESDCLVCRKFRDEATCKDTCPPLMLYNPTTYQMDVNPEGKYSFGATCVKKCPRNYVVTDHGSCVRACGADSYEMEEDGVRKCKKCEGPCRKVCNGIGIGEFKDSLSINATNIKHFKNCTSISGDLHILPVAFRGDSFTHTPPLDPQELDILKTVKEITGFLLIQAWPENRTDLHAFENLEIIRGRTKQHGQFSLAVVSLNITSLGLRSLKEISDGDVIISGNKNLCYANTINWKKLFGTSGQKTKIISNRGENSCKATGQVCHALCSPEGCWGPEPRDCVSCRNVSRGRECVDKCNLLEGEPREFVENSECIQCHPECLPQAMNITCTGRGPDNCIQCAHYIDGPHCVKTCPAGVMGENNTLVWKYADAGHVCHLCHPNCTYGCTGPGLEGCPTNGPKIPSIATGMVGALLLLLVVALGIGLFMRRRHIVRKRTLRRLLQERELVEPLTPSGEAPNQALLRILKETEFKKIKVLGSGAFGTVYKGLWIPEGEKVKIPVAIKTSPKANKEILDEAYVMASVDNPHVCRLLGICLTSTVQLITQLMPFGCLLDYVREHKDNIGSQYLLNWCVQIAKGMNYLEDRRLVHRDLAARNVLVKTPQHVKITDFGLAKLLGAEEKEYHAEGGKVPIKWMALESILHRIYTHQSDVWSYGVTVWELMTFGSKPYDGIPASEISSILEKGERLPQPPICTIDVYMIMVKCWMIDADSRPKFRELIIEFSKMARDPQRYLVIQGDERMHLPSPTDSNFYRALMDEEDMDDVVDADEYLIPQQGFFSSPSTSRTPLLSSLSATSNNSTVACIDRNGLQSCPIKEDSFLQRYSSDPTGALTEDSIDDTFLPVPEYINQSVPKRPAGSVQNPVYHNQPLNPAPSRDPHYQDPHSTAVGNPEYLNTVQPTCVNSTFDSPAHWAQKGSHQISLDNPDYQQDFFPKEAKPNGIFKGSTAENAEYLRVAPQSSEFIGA
In short: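 Cells seeded in phenol-free DMEM with 10% FBS adhered overnight at 37° C./5% CO2, then were exposed for 4 hours to a 4-fold, 10-point compound dilution series. After lysis, phospho-EGFR was read by AlphaLISA SureFire Ultra, and IC50 was fitted from percent inhibition versus log concentration.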

Chain of EGFR L858R (P00533 25-1210 L858R): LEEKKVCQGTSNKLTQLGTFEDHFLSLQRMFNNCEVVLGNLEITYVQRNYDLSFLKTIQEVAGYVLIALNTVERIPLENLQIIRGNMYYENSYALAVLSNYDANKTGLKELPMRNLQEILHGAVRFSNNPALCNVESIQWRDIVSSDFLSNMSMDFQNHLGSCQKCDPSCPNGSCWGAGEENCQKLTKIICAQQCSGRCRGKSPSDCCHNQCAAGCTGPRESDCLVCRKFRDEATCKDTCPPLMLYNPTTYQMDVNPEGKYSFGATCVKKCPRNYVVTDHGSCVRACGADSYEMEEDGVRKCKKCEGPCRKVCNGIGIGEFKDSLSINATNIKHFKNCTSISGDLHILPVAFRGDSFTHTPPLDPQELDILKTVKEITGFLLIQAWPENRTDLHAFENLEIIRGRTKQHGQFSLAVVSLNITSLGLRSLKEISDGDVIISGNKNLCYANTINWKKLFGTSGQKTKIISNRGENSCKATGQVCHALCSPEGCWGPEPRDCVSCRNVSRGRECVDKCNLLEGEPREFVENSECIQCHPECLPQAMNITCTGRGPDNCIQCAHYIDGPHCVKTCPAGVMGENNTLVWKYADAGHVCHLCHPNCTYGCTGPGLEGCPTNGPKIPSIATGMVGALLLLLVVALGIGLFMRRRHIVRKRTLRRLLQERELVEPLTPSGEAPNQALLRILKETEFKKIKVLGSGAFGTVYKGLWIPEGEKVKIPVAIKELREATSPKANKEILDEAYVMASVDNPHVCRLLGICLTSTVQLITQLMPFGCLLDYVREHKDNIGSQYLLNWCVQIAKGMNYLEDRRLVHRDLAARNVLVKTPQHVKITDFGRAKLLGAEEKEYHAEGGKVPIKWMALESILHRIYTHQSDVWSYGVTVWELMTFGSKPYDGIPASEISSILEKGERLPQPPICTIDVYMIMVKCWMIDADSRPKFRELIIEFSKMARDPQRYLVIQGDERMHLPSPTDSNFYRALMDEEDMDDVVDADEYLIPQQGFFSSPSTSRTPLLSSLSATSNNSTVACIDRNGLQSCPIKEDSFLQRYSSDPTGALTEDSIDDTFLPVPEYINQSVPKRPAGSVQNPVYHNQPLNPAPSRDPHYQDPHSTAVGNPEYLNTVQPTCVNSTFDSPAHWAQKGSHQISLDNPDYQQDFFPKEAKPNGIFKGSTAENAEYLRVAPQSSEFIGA

Row | IC50 (EGFR L858R) | IC50 (EGFR (d746-750)) | IC50 [1] | SMILES
1 | 1.1 nM | 0.6 nM | 1.1 nM | CCn1cc(-c2ncnc3cc(OC)c(NC(=O)[C@@]45COC[C@@H]4C5)cc23)c(-c2ccccc2F)n1 (mixture of isomers) [Example 262, (1R,5R)—N-(4-(1-ethyl-3-(2-fluorophenyl)-1H-pyrazol-4-yl)-7-methoxyquinazolin-6-yl)-3-oxabicyclo[3.1.0]hexane-1-carboxamide and (1S,5S)—N-(4-(1-ethyl-3-(2-fluorophenyl)-1H-pyrazol-4-yl)-7-methoxyquinazolin-6-yl)-3-oxabicyclo[3.1.0]hexane-1-carboxamide]
2 | 1.7 nM | 0.4 nM | 0.7 nM | CCOc1cc2ncnc(-c3cn(C)nc3-c3ccc(F)cc3)c2nc1NC(=O)[C@@]12COC[C@@H]1C2 (single isomer, unassigned) [Example 385, (1R,5R)—N-(7-ethoxy-4-(3-(4-fluorophenyl)-1-methyl-1H-pyrazol-4-yl)pyrido[3,2-d]pyrimidin-6-yl)-3-oxabicyclo[3.1.0]hexane-1-carboxamide or (1S,5S)—N-(7-ethoxy-4-(3-(4-fluorophenyl)-1-methyl-1H-pyrazol-4-yl)pyrido[3,2-d]pyrimidin-6-yl)-3-oxabicyclo[3.1.0]hexane-1-carboxamide]
3 | 3.8 nM | 1.1 nM | 13 nM | COc1cc2ncnc(-c3cn(C)nc3-c3ccccc3)c2nc1-c1cccc2c1OCC(=O)N2 [Example 154, 8-(7-methoxy-4-(1-methyl-3-phenyl-1H-pyrazol-4-yl)pyrido[3,2-d]pyrimidin-6-yl)-2H-benzo[b][1,4]oxazin-3(4H)-one]
4 | 6.1 nM | 2.5 nM | 2.5 nM | COc1cc2ncnc(-c3cn(C)nc3-c3ccccc3)c2cc1OC(=O)N1CCOCC12CC2 [Example 65, 7-methoxy-4-(1-methyl-3-phenyl-1H-pyrazol-4-yl)quinazolin-6-yl 7-oxa-4-azaspiro[2.5]octane-4-carboxylate]
5 | 6.4 nM | 0.7 nM | 0.4 nM | CCn1cc(-c2ncnc3cc(OC)c(NC(=O)[C@@]45COC[C@@H]4C5)nc23)c(-c2ccccc2)n1 (single isomer, unassigned) [Example 389, (1R,5R)—N-(4-(1-ethyl-3-phenyl-1H-pyrazol-4-yl)-7-methoxypyrido[3,2-d]pyrimidin-6-yl)-3-oxabicyclo[3.1.0]hexane-1-carboxamide or (1S,5S)—N-(4-(1-ethyl-3-phenyl-1H-pyrazol-4-yl)-7-methoxypyrido[3,2-d]pyrimidin-6-yl)-3-oxabicyclo[3.1.0]hexane-1-carboxamide]
6 | 0.8 nM | 0.4 nM | 0.5 nM | COc1cc2ncnc(-c3cn(C)nc3-c3ccccc3)c2cc1NC(=O)c1cnc(C)s1 [Example 206, N-(7-methoxy-4-(1-methyl-3-phenyl-1H-pyrazol-4-yl)quinazolin-6-yl)-2-methylthiazole-5-carboxamide]
7 | 2 nM | 0.9 nM | 1.2 nM | CCOc1cc2ncnc(-c3cn(CC)nc3-c3ccccc3)c2cc1N1CCOCC1 [Example 170, 4-(7-ethoxy-4-(1-ethyl-3-phenyl-1H-pyrazol-4-yl)quinazolin-6-yl)morpholine]

Further lines, the molecule ahead of its results:

Row | SMILES | IC50 (EGFR L858R) | IC50 (EGFR (d746-750)) | IC50 [1]
8 | CN1CCC(n2cc(-c3ccc4c(-c5c[nH]nc5-c5ccccc5)ncnc4c3)cn2)CC1 [Example 442, 7-(1-(1-methylpiperidin-4-yl)-1H-pyrazol-4-yl)-4-(3-phenyl-1H-pyrazol-4-yl)quinazoline] | 1.4 nM | 1.1 nM | 0.4 nM
9 | COc1cc2ncnc(-c3cn(C)nc3-c3c(F)cccc3F)c2cc1NC(=O)[C@@]12C[C@@H]1CN(C)C2 [Example 292, (1S,5S)—N-(4-(3-(2,6-difluorophenyl)-1-methyl-1H-pyrazol-4-yl)-7-methoxyquinazolin-6-yl)-3-methyl-3-azabicyclo[3.1.0]hexane-1-carboxamide] | 145 nM | 3.2 nM | 9.6 nM
10 | COc1cc2ncnc(-c3cn(C)nc3-c3ccccc3)c2cc1NC(=O)N1C[C@@H](C)OC[C@@H]1C [Example 183, (2R,5S)-N-(7-methoxy-4-(1-methyl-3-phenyl-1H-pyrazol-4-yl)quinazolin-6-yl)-2,5-dimethylmorpholine-4-carboxamide] | 8 nM | 3.6 nM | 10.7 nM
11 | COc1cc2ncnc(-c3cn(C)nc3-c3ccccc3)c2cc1NC(=O)c1ccccc1N1CCNCC1 [Example 227, N-(7-methoxy-4-(1-methyl-3-phenyl-1H-pyrazol-4-yl)quinazolin-6-yl)-2-(piperazin-1-yl)benzamide] | 15.2 nM | 2.7 nM | 6.7 nM
12 | COc1cc2ncnc(-c3cn(C)nc3-c3ccccc3)c2cc1OC(=O)N1[C@H](C)CN(C)C[C@H]1C [Example 89, 7-methoxy-4-(1-methyl-3-phenyl-1H-pyrazol-4-yl)quinazolin-6-yl (2R,6R)-2,4,6-trimethylpiperazine-1-carboxylate] | 5.4 nM | 1.9 nM | 5.7 nM
13 | CC(C)Oc1cc2ncnc(-c3cn(C)nc3-c3ccccc3)c2cc1[C@@H](C)O (single isomer, unassigned) [Example 114, (R)-1-(7-isopropoxy-4-(1-methyl-3-phenyl-1H-pyrazol-4-yl)quinazolin-6-yl)ethan-1-ol or (S)-1-(7-isopropoxy-4-(1-methyl-3-phenyl-1H-pyrazol-4-yl)quinazolin-6-yl)ethan-1-ol] | 2.9 nM | 2.3 nM | 28.9 nM
14 | CN1CCC(n2cc(-c3ccc4c(-c5cn(C)nc5-c5ccccc5)ncnc4c3)cn2)CC1 [Example 438, 4-(1-methyl-3-phenyl-1H-pyrazol-4-yl)-7-(1-(1-methylpiperidin-4-yl)-1H-pyrazol-4-yl)quinazoline] | 1.2 nM | 0.8 nM | 0.3 nM
15 | COc1cc2ncnc(-c3cn(C)nc3-c3ccccc3)c2cc1NC(=O)[C@H](C)N(C)C (single isomer, unassigned) [Example 236, (S)-2-(dimethylamino)-N-(7-methoxy-4-(1-methyl-3-phenyl-1H-pyrazol-4-yl)quinazolin-6-yl) propenamide or (R)-2-(dimethylamino)-N-(7-methoxy-4-(1-methyl-3-phenyl-1H-pyrazol-4-yl)quinazolin-6-yl) propenamide] | 3.8 nM | 1.4 nM | 3.9 nM
16 | COc1cc2ncnc(-c3cn(CC(F)F)nc3-c3ccccc3)c2cc1NC(=O)c1ccns1 [Example 272, N-(4-(1-(2,2-difluoroethyl)-3-phenyl-1H-pyrazol-4-yl)-7-methoxyquinazolin-6-yl)isothiazole-5-carboxamide] | 1.2 nM | 1 nM | 0.5 nM
17 | COc1cc2ncnc(-c3cn(C)nc3-c3c(F)cccc3F)c2cc1NC(=O)[C@]12C[C@H]1CN(C)C2 [Example 293, (1R,5R)—N-(4-(3-(2,6-difluorophenyl)-1-methyl-1H-pyrazol-4-yl)-7-methoxyquinazolin-6-yl)-3-methyl-3-azabicyclo[3.1.0]hexane-1-carboxamide] | 277 nM | 3.4 nM | 8.9 nM
18 | COc1cc2ncnc(-c3cn(C)nc3-c3ccccc3)c2cc1NC(=O)C1CC(F)(F)C1 [Example 346, 3,3-difluoro-N-(7-methoxy-4-(1-methyl-3-phenyl-1H-pyrazol-4-yl)quinazolin-6-yl)cyclobutane-1-carboxamide] | 2.1 nM | 1.3 nM | 0.9 nM
19 | CCN1CCN(C(=O)Oc2cc3c(-c4cn(C)nc4-c4ccccc4)ncnc3cc2OC)[C@@H](C)C1 [Example 75, 7-methoxy-4-(1-methyl-3-phenyl-1H-pyrazol-4-yl)quinazolin-6-yl (S)-4-ethyl-2-methylpiperazine-1-carboxylate] | 3.6 nM | 2.2 nM | 3.6 nM
20 | COc1cc2ncnc(-c3cn(C)nc3-c3ccccc3)c2cc1-c1cccc(C(=O)NC2CC2)c1 [Example 142, N-cyclopropyl-3-(7-methoxy-4-(1-methyl-3-phenyl-1H-pyrazol-4-yl)quinazolin-6-yl)benzamide] | 3.2 nM | 2.8 nM | 7.1 nM
21 | COc1cc2ncnc(-c3cn(C)nc3-c3ccccc3)c2cc1NC(=O)[C@@H]1C[C@@H]1C [Example 283, (1R,2S)—N-(7-methoxy-4-(1-methyl-3-phenyl-1H-pyrazol-4-yl)quinazolin-6-yl)-2-methylcyclopropane-1-carboxamide] | 1.7 nM | 0.9 nM | 1.1 nM
22 | COc1cc2ncnc(-c3cn(C)nc3-c3ccccc3)c2cc1NC(=O)[C@@]12COC[C@@H]1C2 (single isomer, unassigned) [Example 261, (1R,5R)—N-(7-methoxy-4-(1-methyl-3-phenyl-1H-pyrazol-4-yl)quinazolin-6-yl)-5-methyl-3-oxabicyclo[3.1.0]hexane-1-carboxamide or (1S,5S)—N-(7-methoxy-4-(1-methyl-3-phenyl-1H-pyrazol-4-yl)quinazolin-6-yl)-3-oxabicyclo[3.1.0]hexane-1-carboxamide] | 2.8 nM | 1.3 nM | 6.1 nM
23 | COc1cc2ncnc(-c3cn(C)nc3-c3ccccc3)c2cc1NC(=O)[C@H](C)N(C)C (single isomer, unassigned) [Example 237, (R)-2-(dimethylamino)-N-(7-methoxy-4-(1-methyl-3-phenyl-1H-pyrazol-4-yl)quinazolin-6-yl) propenamide or (S)-2-(dimethylamino)-N-(7-methoxy-4-(1-methyl-3-phenyl-1H-pyrazol-4-yl)quinazolin-6-yl) propenamide] | 5.4 nM | 2 nM | 6.6 nM
